What is called EC50 is the concentration giving half of the maximal effect.

For experiment [1], the system named is Human Rhinovirus 1B (HRV1B). The experiment in a line: H1-HeLa HRV-CTG 384-well assay, HRV1B, Example X. It counts as cell-based. The note with it: Rhinovirus A, 96 h; H1-HeLa cells, HRV1B MOI 0.5, 4 days, Celltiter-Glo; read-out: EC50 H1-HeLa_HRV 1B_HRV-CTG 384-well Assay (per Ex. X). In short, it runs like this:
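H1-HeLa cells (5,000/well, DMEM 2% FBS) infected with HRV1B, HRV14 or HRV16 at MOI 0.5, 1.0 and 0.25 respectively, with 10-point 1:3 compound dilutions; 4 days at 37 °C. Viability by CellTiter-Glo luminescence, normalized to rupintrivir and DMSO controls; EC50 by non-linear regression.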
On the technique in general: Cellular ATP, detected with luciferase, serves as a proxy for viable cell number.

The subject of experiment [2] is Respiratory syncytial virus recombinant with luciferase (RSV-Luc5). The experiment in a line: HEp-2 RSV-Luc5 384-well assay (EC50 RSVFLUC Hep2-384 v2), Example V. The class given is cell-based. To be noted: human respiratory syncytial virus, HEp-2, 72 h, read-out: EC50 RSV FLuc Hep-2 384 V2 (per Ex. V). An outline of the steps:
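HEp-2 cells (4,000/well) seeded onto spotted compounds (10-point, 1:3 dilutions) and infected with RSV-Luc5 at MOI 0.5. After 3 days at 37 °C, luciferase read with One-Glo. Signal normalized to remdesivir (0%) and DMSO (100% replication) controls; EC50 from non-linear regression.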

On to `N#C[C@]1(COC(=O)OC2CC3(CCC3)C2)O[C@@H](c2ccc3c(N)ncnn23)[C@H](O)[C@@H]1O` [Compound 36, ((2R,3S,4R,5S)-5-(4-aminopyrrolo[2,1-f][1,2,4]triazin-7-yl)-2-cyano-3,4-dihydroxytetrahydrofuran-2-yl)methyl spiro[3.3]heptan-2-yl carbonate], for which the values for the EC50 in experiment [1] and in experiment [2] were 5.93 µM and 14.3 µM, respectively.

Regarding `CC1(C)CC(OC(=O)OC[C@@]2(C#N)O[C@@H](c3ccc4c(N)ncnn34)[C@H](O)[C@@H]2O)C1` [Compound 37, ((2R,3S,4R,5S)-5-(4-aminopyrrolo[2,1-f][1,2,4]triazin-7-yl)-2-cyano-3,4-dihydroxytetrahydrofuran-2-yl)methyl (3,3-dimethylcyclobutyl) carbonate], the results for the EC50 in experiment [1] and in experiment [2] were 6.74 µM and 21.3 µM, respectively.

`COC[C@@H](C)OC(=O)OC[C@@]1(C#N)O[C@@H](c2ccc3c(N)ncnn23)[C@H](O)[C@@H]1O` [Compound 38, ((2R,3S,4R,5S)-5-(4-aminopyrrolo[2,1-f][1,2,4]triazin-7-yl)-2-cyano-3,4-dihydroxytetrahydrofuran-2-yl)methyl ((R)-1-methoxypropan-2-yl) carbonate]: the concentration for a half-maximal effect (EC50) in experiment [1] was 23.8 µM; in experiment [2], 50 µM.

On to `N#C[C@]1(COC(=O)O[C@@H]2C[C@@H]3C[C@@H]3C2)O[C@@H](c2ccc3c(N)ncnn23)[C@H](O)[C@@H]1O` [Compound 39, ((2R,3S,4R,5S)-5-(4-aminopyrrolo[2,1-f][1,2,4]triazin-7-yl)-2-cyano-3,4-dihydroxytetrahydrofuran-2-yl)methyl ((1R,3r,5S)-bicyclo[3.1.0]hexan-3-yl) carbonate], for which the EC50 in experiment [1] turned out to be 8.26 µM; in experiment [2], 28.1 µM.

Take `C[C@H]1CC[C@H](OC(=O)OC[C@@]2(C#N)O[C@@H](c3ccc4c(N)ncnn34)[C@H](O)[C@@H]2O)CC1` [Compound 40, ((2R,3S,4R,5S)-5-(4-aminopyrrolo[2,1-f][1,2,4]triazin-7-yl)-2-cyano-3,4-dihydroxytetrahydrofuran-2-yl)methyl ((1r,4R)-4-methylcyclohexyl) carbonate]: the results for the EC50 in experiment [1] and in experiment [2] were 9.48 µM and 26.7 µM, respectively.

For the origin of these results see patent US20230382940A1, “ANTIVIRAL COMPOUNDS AND METHODS OF MAKING AND USING THE SAME” (Gilead Sciences, Inc., priority 2022, published 2023).
